Measurements from PubChem BioAssay (NCI).
Where “and” joins values, the source holds several entries; their conditions need not be identical. Equal values may be shown once.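 Results reflect a 48-hour exposure of cells in 96-well plates to compound at five concentrations. The concentration for 50% growth inhibition is given as GI50. TGI is the concentration that stops growth completely.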

Key:
Experiment in all cases: NCI tumour cell line growth inhibition, 48 h
[1] = system: HL-60(TB) leukemia
[2] = system: HS 578T breast
[3] = system: HT29 colon
[4] = system: IGROV1 ovarian
[5] = system: MCF7 breast
[6] = system: MDA-MB-231 breast
[7] = system: NCI-H226 lung
[8] = system: SK-MEL-5 melanoma
[9] = system: U251 CNS
[10] = system: UACC-62 melanoma

Compound	GI50 [1]	TGI [1]	GI50 [2]	TGI [2]	GI50 [3]	TGI [3]	GI50 [4]	TGI [4]	GI50 [5]	TGI [5]	GI50 [6]	TGI [6]	GI50 [7]	TGI [7]	GI50 [8]	TGI [8]	GI50 [9]	TGI [9]	GI50 [10]	TGI [10]
CCOC(=O)N[C@H]1CCc2c(Br)c(OC)c(OC)c(OC)c2-c2ccc(SC)c(=O)cc21	< 0.01 µM	0.0131 µM	< 0.01 µM	37.3 µM	< 10 nM	> 34.5 µM	0.0189 µM	16.2 µM	< 10 nM	12.7 µM	< 10 nM	5.17 µM	< 0.0165 µM	13.9 µM	< 10 nM	0.0237 µM	< 0.01 µM	14.1 µM	< 10 nM	14.2 µM
O=S(=O)(NCCNc1cc(-c2cn(-c3ccccc3)nc2-c2cccc(O)c2)ccn1)c1ccc(Cl)cc1	2.42 µM	5.98 µM	3 µM	> 100 µM	2240 nM	5.21 µM	3.82 µM	24.2 µM	2740 nM	9.43 µM	2140 nM	5.56 µM	4.02 µM	21.2 µM	2020 nM	4 µM	3.21 µM	11.4 µM	2080 nM	5.08 µM
N[C@@H]1CCCC[C@@H]1N.O=C([O-])CN(CP(=O)([O-])[O-])CP(=O)([O-])[O-].[Pt+2]	> 100 µM	> 100 µM	–	–	> 100000 nM	> 100 µM	> 100 µM	> 100 µM	–	–	–	–	> 100 µM	> 100 µM	> 100000 nM	> 100 µM	> 100 µM	> 100 µM	> 100000 nM	> 100 µM
O=C1c2ccn(CCCCN3CCCCC3)c2C(=O)c2c1c(O)c1ccccc1c2O	24.5 µM	> 100 µM	27 µM	65.1 µM	4140 nM	> 100 µM	11.1 µM	> 100 µM	14200 nM	> 62.3 µM	–	–	30 µM	> 73.7 µM	13300 nM	33.9 µM	6.16 µM	–	–	1.32 µM
CCCCN(CCCC)C(=O)C(=O)C(C)C(=O)CC (stereo not given)	–	> 100 µM	–	–	–	> 100 µM	–	> 100 µM	–	–	–	–	–	> 100 µM	–	–	–	> 100 µM	–	> 100 µM
BrC1=CC=C2NCCCCCCN=C3C=CC(Br)=CC=C3NCCCCCCN=C2C=C1	–	> 25.5 µM	–	–	–	> 25.5 µM	–	> 25.5 µM	–	–	–	–	–	> 25.5 µM	–	> 25.5 µM	–	> 25.5 µM	–	> 25.5 µM
[C-]#[N+][C@]12C(=O)[C@H](CCC1(C)C)C(C)(C)[C@H]1C(=O)N(C)c3cccc2c31	4.07 µM	> 100 µM	68.5 µM	> 100 µM	17600 nM	> 100 µM	–	–	4540 nM	> 100 µM	> 100000 nM	> 100 µM	> 100 µM	> 100 µM	9080 nM	> 100 µM	7.08 µM	> 100 µM	22800 nM	> 100 µM
C=CCC(N[C@H](CO)c1ccccc1)c1cn(S(=O)(=O)c2ccc(C)cc2)c2ccccc12 (stereo not given in full)	–	–	24.3 µM	60.5 µM	31200 nM	> 100 µM	14.6 µM	47.3 µM	> 100000 nM	> 100 µM	10700 nM	32.3 µM	–	–	26100 nM	43.8 µM	17.6 µM	36 µM	15100 nM	29.7 µM
CC(=O)/C=C/C1=C(c2cccs2)c2ccccc2CC1	20.7 µM	> 100 µM	29.5 µM	98.6 µM	26900 nM	68.4 µM	19.8 µM	49.7 µM	–	–	23300 nM	59.1 µM	28.7 µM	93.5 µM	–	–	22.8 µM	51.1 µM	17600 nM	33.2 µM
OCC#Cc1ccccc1C#Cc1ccc(C#Cc2ccccc2C#CCO)s1	43.4 µM	> 100 µM	22.3 µM	58.1 µM	–	–	13.7 µM	34.2 µM	29900 nM	> 100 µM	18900 nM	53.5 µM	–	–	16300 nM	31.2 µM	20.1 µM	42.3 µM	19500 nM	43.4 µM
Cc1nc2cc(Nc3nc(Nc4ccc(F)cc4)nc(N4CCN(C)CC4)n3)ccc2n1Cc1ccccc1	1.34 µM	3.36 µM	–	–	1660 nM	3.28 µM	2.45 µM	5.83 µM	1360 nM	3.38 µM	1690 nM	3.36 µM	–	–	1540 nM	2.89 µM	1.35 µM	2.64 µM	–	–
CC1CCP(=O)(c2ccccc2)CC1 (stereo not given)	–	> 100 µM	–	–	–	> 100 µM	–	> 100 µM	–	–	–	–	–	–	–	> 100 µM	–	> 100 µM	–	> 100 µM
CNC(=O)OC1C(O[C@H]2C[C@H]3[C@@H]4CC=C5C[C@@H](O)CC[C@]5(C)[C@H]4CC[C@]3(C)[C@H]2[C@H](C)C(=O)CCC(C)C)OCC(O)C1OC1OCC(O)C(O)C1OC(=O)c1ccc(OC)cc1 (stereo not given in full)	–	–	< 0.00275 µM	0.0584 µM	63.1 nM	4.92 µM	0.0224 µM	3.95 µM	14.9 nM	2.87 µM	103 nM	4.62 µM	–	–	26 nM	0.317 µM	0.00334 µM	3.87 µM	6.88 nM	0.0188 µM
CC(=O)[C-](C(C)=O)c1ccccc1.CC(=O)[C-](C(C)=O)c1ccccc1.CC[O-].CC[O-].[Ti+4]	> 100 µM	> 100 µM	–	–	> 100000 nM	> 100 µM	> 100 µM	> 100 µM	–	–	–	–	> 100 µM	> 100 µM	> 100000 nM	> 100 µM	> 100 µM	> 100 µM	> 100000 nM	> 100 µM
COc1cc(Cl)c2c3c(c(C(=O)c4ccccc4)oc13)CCC2	–	> 100 µM	–	–	–	> 100 µM	–	> 100 µM	–	–	–	–	–	–	–	> 100 µM	–	> 100 µM	–	> 100 µM
O=[N+]([O-])/C=C\c1c[nH]c2ccc(OCc3ccccc3)cc12	–	8.78 µM	–	7.24 µM	–	–	–	15.8 µM	–	73.7 µM	–	18 µM	–	13.4 µM	–	19.2 µM	–	19 µM	–	14.1 µM
CCCCCCNc1nc(N2CCOCC2)c2[nH]c(NCCCCCC)nc2n1	–	–	1.37 µM	3.16 µM	–	–	–	–	–	–	1810 nM	3.3 µM	1.7 µM	4 µM	1420 nM	2.72 µM	1.61 µM	3.18 µM	1630 nM	3.12 µM
O=C(CNc1ncco1)Nc1ccc(S(=O)(=O)c2ccc(NC(=O)CNc3ncco3)cc2)cc1	4.72 µM	21.3 µM	14.3 µM	> 100 µM	–	–	1.76 µM	5.32 µM	1340 nM	5.66 µM	2660 nM	7.38 µM	2.32 µM	7.09 µM	1520 nM	2.88 µM	1.17 µM	2.48 µM	1750 nM	3.65 µM

Compound	GI50 [1]	TGI [1]	GI50 [2]	TGI [2]	GI50 [3]	TGI [3]	GI50 [4]	TGI [4]	GI50 [5]	TGI [5]	GI50 [6]	TGI [6]	GI50 [7]	TGI [7]	GI50 [8]	TGI [8]	GI50 [9]	TGI [9]	GI50 [10]	TGI [10]
Cc1ccc(NC(=O)C2C(=O)N(c3ccc(C)c(C)c3)C(=O)/C2=N\NC(N)=S)cc1C (stereo not given)	–	> 100 µM	–	–	–	> 100 µM	–	> 100 µM	–	–	–	–	–	> 100 µM	–	–	–	> 100 µM	–	> 100 µM
Cn1c2ccccc2c(=O)c2c([N+](=O)[O-])ccc(NCCN)c21	–	22.9 µM	–	–	–	17.3 µM	–	27.2 µM	–	–	–	–	–	27.2 µM	–	27.2 µM	–	28.1 µM	–	29.6 µM
COc1ccc(C(=O)C(C(=O)C(=O)Nc2nccs2)c2ccc(OC)cc2)cc1 (stereo not given)	–	–	–	–	–	> 100 µM	–	> 100 µM	–	–	–	–	–	–	–	> 100 µM	–	> 100 µM	–	> 100 µM
COC1C(O)C(C)OC(OC2CC3CCC4C(CCC5(C)C(C6=CC(=O)OC6)CCC45O)C3(O)C(OC(C)=O)C2)C1O (stereo not given)	–	4.23 µM	–	> 100 µM	–	12.7 µM	–	15.7 µM	–	–	–	97.3 µM	–	10.3 µM	–	2.03 µM	–	> 24.2 µM	–	5.92 µM
c1ccc2cc(Cn3c[n+](Cc4ccc5ccccc5c4)c4ccccc43)ccc2c1	–	–	–	–	–	–	–	–	–	–	1100 nM	2.47 µM	–	–	556 nM	1.86 µM	–	–	–	–
CCCCCCC#CC#Cc1cccc(=O)o1	–	–	1.99 µM	6.49 µM	3690 nM	34.6 µM	2.35 µM	–	2220 nM	22.3 µM	1640 nM	3.72 µM	2.07 µM	4.7 µM	304 nM	0.994 µM	2.07 µM	4.92 µM	1450 nM	2.86 µM
CC(O)C(O)C(O)C(/C=N\Nc1ccccc1)=N/Nc1ccccc1 (stereo not given)	–	45.3 µM	–	24.7 µM	–	30.8 µM	–	21.4 µM	–	24.1 µM	–	27.3 µM	–	–	–	28.5 µM	–	27.2 µM	–	22.2 µM
CCCCCC(O)(CCCCC)CCCCCCCCC1=C(O)c2[nH]c(=O)ccc2C(=O)C1=O	–	23.6 µM	–	–	–	30.5 µM	–	18.9 µM	–	–	–	–	–	28.8 µM	–	12.9 µM	–	16.7 µM	–	10.9 µM
CCc1c(O)c2c(c(O)c1C(C)=O)C(=O)c1c(cc(O)c(C(=O)O)c1C(=O)O)C2=O	–	–	–	> 100 µM	–	> 100 µM	–	> 100 µM	–	> 100 µM	–	> 100 µM	–	> 100 µM	–	> 100 µM	–	> 100 µM	–	> 100 µM
O=C(O)c1cc(Cc2ccc(O)c(C(=O)O)c2)ccc1O (tested in a mixture with another compound)	–	–	3.78 µM	40.4 µM	2980 nM	10.4 µM	4.72 µM	20.6 µM	2530 nM	12.5 µM	3250 nM	12.2 µM	7.29 µM	23.3 µM	4900 nM	19.8 µM	9.44 µM	27.7 µM	4730 nM	19.9 µM
CC1(C)CC(=O)C(=[N+]=[N-])C(=O)C1	–	> 100 µM	–	–	–	> 100 µM	–	> 100 µM	–	–	–	–	–	> 100 µM	–	–	–	–	–	> 100 µM
CN1CCN(c2ccc(NC3=C(Cl)C(=O)c4ncccc4C3=O)cc2C#N)CC1	0.316 µM	1.24 µM	2.14 µM	5.47 µM	2160 nM	5.14 µM	1.34 µM	2.82 µM	–	–	1570 nM	4.17 µM	16.8 µM	36.3 µM	1830 nM	3.38 µM	2.01 µM	4.44 µM	1780 nM	3.61 µM
Cc1cc(C)cc(Nc2ccc([N+](=O)[O-])c(NCCN3CCOCC3)n2)c1	0.00261 µM	0.00926 µM	0.00306 µM and 0.0165 µM	48.4 µM	2.19 nM and 18.8 nM	> 100 µM	–	> 100 µM	0.327 nM	> 100 µM	–	–	0.0365 µM and 0.0614 µM	> 100 µM	0.82 nM	0.0332 µM and 0.256 µM	–	> 100 µM	–	> 100 µM
O=C(NNS(=O)(=O)c1ccc(F)cc1)c1cccnc1Nc1ccc(Cl)cc1Cl	25.2 µM	62.3 µM	27.9 µM	> 100 µM	22100 nM	57.8 µM	–	–	31500 nM	> 100 µM	28800 nM	> 100 µM	29.6 µM	96.9 µM	25300 nM	86 µM	29.1 µM	> 100 µM	46000 nM	> 100 µM
COc1cc2c([C@@H](OC(=O)c3ccccc3)c3ccc4c(c3)OCO4)nccc2c(OC)c1OC	–	92.9 µM	–	–	–	> 100 µM	–	> 100 µM	–	–	–	–	–	94.5 µM	–	69.8 µM	–	> 100 µM	–	> 100 µM
O=C(O)/C(=C\c1ccccc1Cl)S(=O)(=O)c1ccccc1	–	> 100 µM	–	–	–	> 100 µM	–	> 100 µM	–	–	–	–	–	–	–	> 100 µM	–	> 100 µM	–	> 100 µM
c1cc[c]([Sn]([S]c2cccc3cccnc23)([S]c2cccc3cccnc23)[c]2ccccc2)cc1	0.172 µM	0.563 µM	–	–	222 nM	0.565 µM	0.267 µM	0.789 µM	–	–	–	–	0.175 µM	1.06 µM	204 nM	0.483 µM	0.482 µM	1.92 µM	186 nM	0.43 µM
COC(=O)/C(=C/c1ccc(OC)cc1)NC(=O)c1ccccc1	–	> 100 µM	–	–	–	> 100 µM	–	> 100 µM	–	–	–	–	–	> 100 µM	–	> 100 µM	–	> 100 µM	–	> 100 µM
